Marks after values point to notes of the source that are not given here.

Data on 2 molecules can be found in patent publication US20220370326A1, “TOPICAL COMPOSITIONS AND METHODS OF USING SAME AGAINST MITOCHONDRIAL FRAGMENTATION” (Conopco, Inc., d/b/a UNILEVER, priority 2019, published 2022).

The test system of this test is human keratinocytes. Briefly: Mitochondrial fragmentation in keratinocytes - UV study (TPEF imaging of NADH, Fourier PSD analysis). It is filed as cell-based. The conditions noted are these: B3 10 mM, SAMe 500 uM; for Effect on mitochondrial fragmentation in Non UV-exposed keratinocytes (in words) / Effect on UV-induced mitochondrial fragmentation (in words): significance P </= 0.05; for Mitochondrial Fragmentation, (+) UV (4 days) / Mitochondrial Fragmentation, (−) UV (3 days): human keratinocytes, higher value = less protection; for Mitochondrial Fragmentation, (+) UV (4 days): 4 days of daily UV exposure (4 J/cm^2 UVA+UVB, 14 min); for Mitochondrial Fragmentation, (−) UV (3 days): not UV-exposed, 3 days of treatment; for Effect on UV-induced mitochondrial fragmentation (in words): keratinocytes, UV exposure for 4 days. The method, then:
Test compounds (B3 and SAMe) were purchased from Sigma (St. Loius, MO). Cell culture growth media (Epilife media with calcium (Cat#MEPI500CA) and Epilife media supplement HKGS 100X (Cat#S-001-5)) was purchased from Thermofisher (Waltham, Mass.). Cryopreserved human keratinocytes cells (˜1×10^6 cells) were plated on 12-well glass bottom plates at a confluence of ˜15%. The cells were suspended in primary keratinocyte growth media (Epilife media with calcium) and incubated @ 37° C. for 1d (Day 0). At Day 1, cells began treatment with supplemented primary keratinocyte growth media (Epilife media with calcium supplemented with HKGS 100X; […]) without test compound (Control sample) or containing test compounds B3 (10 mM), SAMe (500 μM) or B3 (10 mM)+SAMe (500 uM). Cell treatment (25m1 media with or without test compounds as above) continued daily for 2 additional days (Days 2 and 3). On Day 4, cells were subjected to UV treatment by replacing media with PBS, exposing cells to UV light (4 J/cm^2 of UVA+UVB) for 14 min and feeding cells with media with or without corresponding test compounds as defined above. UV treatments continued daily for 3 additional days (Days 5, 6 and 7). Image acquisition and analysis on all wells to assess mitochondrial fragmentation was conducted on Day 1, 3, 5 and 8.
For two-photon excited fluorescence (TPEF) imaging, cell cultures were placed in microscope-compatible micro-incubator system, which maintained 37° C. within a humidified environment throughout the imaging session. HEPES buffering agent (Sigma) was added to cell cultures before imaging, which maintained the pH of cell cultures throughout the imaging session. Images were obtained using a Leica TCS SP8 confocal microscope equipped with a tunable (680-1300 nm) titanium-sapphire laser (InSight Deep See; Spectra Physics; Mountain View, Calif.). Images (1024×1024 pixels; 386×386 μm) were acquired using water-immersion 25x objective (NA 0.95; 2.4 mm working distance), with simultaneous collection by two non-descanned photomultiplier tube (PMT) detectors using a filter cube containing filters from Chroma (Bellows Falls, VT), including a 700 nm short pass filter (ET700SP-2P) and a 495 nm dichroic mirror (495DCXR). To isolate NADH fluorescence, a 460(±20) nm emission filter (Chroma, ET460/40M-2P), corresponding to the NADH emission peak, was placed before one of the non-descanned detectors. NADH fluorescence images were acquired from this 460 nm channel using 755 nm excitation. FAD fluorescence was isolated using a 525(±25) nm emission filter (Chroma, ET525/50M-2P) for the other non-descanned detector and 860 nm excitation. The two-photon action cross section of NADH decreases by several orders of magnitude between 755 nm and 860 nm excitation, enabling an efficient isolation of FAD at longer wavelengths. The fluorescence lifetime images (512×512 pixels; 386×386 μm) corresponding to NADH were acquired under the same excitation and emission settings, using SymPho software. PMT gain was adjusted for each image to maximize contrast while preventing a saturated pixel intensity value. The PMT gain and laser power were recorded for each image and used to normalize fluorescence intensity.
To assess mitochondrial fragmentation, a previously-established Fourier transform technique was used to obtain power spectral density (PSD) curves from each image. […]

`NC(=O)c1cccnc1` [B3, Nicotinamide]: the “Effect on mitochondrial fragmentation in Non UV-exposed keratinocytes (in words)” value was “does not significantly reduce mitochondrial fragmentation”; the “Mitochondrial Fragmentation, (+) UV (4 days)” value is on record as 1.34 ^d; the “Mitochondrial Fragmentation, (−) UV (3 days)” value came out at 1.18; the “Effect on UV-induced mitochondrial fragmentation (in words)” value is listed as “effective at reducing this UV-induced effect down to control levels”.

With `C[S+](CC[C@H](N)C(=O)[O-])C[C@H]1O[C@@H](n2cnc3c(N)ncnc32)[C@H](O)[C@@H]1O` (stereo partly drawn) [SAMe, S-adenosyl-L-methionine], the “Effect on mitochondrial fragmentation in Non UV-exposed keratinocytes (in words)” value was “does not significantly reduce mitochondrial fragmentation”; the “Mitochondrial Fragmentation, (+) UV (4 days)” value is listed as 1.58 ^c,e; the “Mitochondrial Fragmentation, (−) UV (3 days)” value was found to be 1.30; the “Effect on UV-induced mitochondrial fragmentation (in words)” value is recorded as “increases mitochondrial fragmentation beyond UV-exposed levels”.
